A word on the IC50: it is the concentration that inhibits the measured activity by half.

Experimental findings from patent US11802111B2, “Cyclobutyl amide monoacylglycerol lipase modulators” (Janssen Pharmaceutica NV, priority 2020, dated 2023) are described below.

Chain of human MGL from HeLa cells (Q99685 whole entry): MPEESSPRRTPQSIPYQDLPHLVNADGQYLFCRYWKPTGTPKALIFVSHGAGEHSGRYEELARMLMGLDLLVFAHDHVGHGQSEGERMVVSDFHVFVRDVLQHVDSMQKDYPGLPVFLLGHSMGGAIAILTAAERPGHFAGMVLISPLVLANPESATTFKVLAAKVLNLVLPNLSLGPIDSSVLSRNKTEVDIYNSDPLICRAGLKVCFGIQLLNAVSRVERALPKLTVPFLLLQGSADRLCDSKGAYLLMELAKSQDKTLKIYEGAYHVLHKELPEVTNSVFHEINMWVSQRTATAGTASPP

This assay concerns the target human MGL from HeLa cells (Homo sapiens (Human), UniProt Q99685). In words: MGL in vitro activity assay ([glycerol-1,3-3H]-oleoyl glycerol hydrolysis, activated carbon filtration). It counts as biochemical. Conditions: 300 nM [Glycerol-1,3-3H]-oleoyl glycerol, one hour. Here is the method:
The assay used to measure the in vitro activity of MGL is adapted from the assay used for another serine hydrolase (FAAH) described in Wilson et al., 2003 (A high-throughput-compatible assay for determining the activity of fatty acid amide hydrolase. Wilson S J, Lovenberg T W, Barbier A J. Anal Biochem. 2003 Jul. 15; 318(2):270-5). The assay consists of combining endogenously expressed MGL from HeLa cells with test compounds, adding [glycerol-1,3-^3H]-oleyl glycerol, incubating for one hour, and then measuring the amount of cleaved [1,3-^3H]-glycerol that passes through an activated carbon filter. The amount of cleaved, tritiated glycerol passing through the carbon filter is proportional to the activity of the MGL enzyme in a particular well/test condition.
Standard conditions for this assay combine 300 nM [Glycerol-1,3-^3H]-oleoyl glycerol with human MGL from HeLa cells and test compounds for one hour, after which the reaction is filtered through activated carbon and tritium is measured in the flow through. The test compound concentration in screening mode is 10 μM, while the highest compound concentration in IC50 assays is determined empirically. MGL is the predominant hydrolase in HeLa cells/cell homogenates.
Take `Cn1ncc2cc(C3CCC4(C3)CN(C(=O)[C@H]3C[C@@](C)(O)C3)C4)ccc21` (mixture of isomers) [Example 102, (rac)-((1s,3s)-3-Hydroxy-3-methylcyclobutyl)(6-(1-methyl-1H-indazol-5-yl)-2-azaspiro[3.4]octan-2-yl)methanone]: the half-inhibitory concentration (IC50) came out at 301 nM.
The result for `Cc1ccc(C2CCC3(C2)CN(C(=O)[C@H]2C[C@@](C)(O)C2)C3)cc1OC(F)(F)F` (mixture of isomers) [Example 107, (rac)-((1s,3s)-3-Hydroxy-3-methylcyclobutyl)(6-(4-methyl-3-(trifluoromethoxy)phenyl)-2-azaspiro[3.4]octan-2-yl)methanone] reads 7.4 nM; that for `C[C@]1(O)C[C@@H](C(=O)N2CC3(CCC(c4ccc(F)c(C5CC5)c4)C3)C2)C1` (mixture of isomers) [Example 108, (rac)-(6-(3-Cyclopropyl-4-fluorophenyl)-2-azaspiro[3.4]octan-2-yl)((1s,3s)-3-hydroxy-3-methylcyclobutyl)methanone], 14 nM; that for `Cn1ncc(C2CCC3(C2)CN(C(=O)[C@H]2C[C@@](C)(O)C2)C3)c1C(F)(F)F` (mixture of isomers) [Example 109, (rac)-((1s,3s)-3-Hydroxy-3-methylcyclobutyl)(6-(1-methyl-5-(trifluoromethyl)-1H-pyrazol-4-yl)-2-azaspiro[3.4]octan-2-yl)methanone], 899 nM.
In turn, `C[C@]1(O)C[C@@H](C(=O)N2CC3(CCC(c4cccc(C(F)(F)F)n4)C3)C2)C1` (mixture of isomers) [Example 110, (rac)-((1s,3s)-3-Hydroxy-3-methylcyclobutyl)(6-(6-(trifluoromethyl)pyridin-2-yl)-2-azaspiro[3.4]octan-2-yl)methanone] yielded a 50% inhibitory concentration (IC50) of 435 nM.
The result for `Cn1cnc2cc(C3CCC4(C3)CN(C(=O)[C@H]3C[C@@](C)(O)C3)C4)ccc21` (mixture of isomers) [Example 111, (rac)-((1s,3s)-3-Hydroxy-3-methylcyclobutyl)(6-(1-methyl-1H-benzo[d]imidazol-5-yl)-2-azaspiro[3.4]octan-2-yl)methanone] reads 949 nM; that for `Cn1c(C2CCC3(C2)CN(C(=O)[C@H]2C[C@@](C)(O)C2)C3)nc2ccccc21` (mixture of isomers) [Example 112, (rac)-((1s,3s)-3-Hydroxy-3-methylcyclobutyl)(6-(1-methyl-1H-benzo[d]imidazol-2-yl)-2-azaspiro[3.4]octan-2-yl)methanone], 5530 nM.
To `CC(C)c1cc(F)cc(C2CCC3(C2)CN(C(=O)[C@H]2C[C@@](C)(O)C2)C3)c1` (mixture of isomers) [Example 125, (rac)-(6-(3-Fluoro-5-isopropylphenyl)-2-azaspiro[3.4]octan-2-yl)((1s,3s)-3-hydroxy-3-methylcyclobutyl)methanone] belongs 8.3 nM; to `CC[C@]1(O)C[C@@H](C(=O)N2CC3(CCC(c4cccc(C(C)(C)C)c4)C3)C2)C1` (mixture of isomers) [Example 126, (rac)-(6-(3-(tert-Butyl)phenyl)-2-azaspiro[3.4]octan-2-yl)((1r,3s)-3-ethyl-3-hydroxycyclobutyl)methanone], 7.5 nM; to `C[C@]1(O)C[C@@H](C(=O)N2CCC3(CCC(c4ccc(C(F)(F)F)cc4)C3)CC2)C1` (mixture of isomers) [Example 152, (rac)-((1s,3s)-3-Hydroxy-3-methylcyclobutyl)(2-(4-(trifluoromethyl)phenyl)-8-azaspiro[4.5]decan-8-yl)methanone], 3.3 nM.
The result for `Cc1ccc(CC2CCC3(C2)CN(C(=O)[C@H]2C[C@@](C)(O)C2)C3)cc1` (mixture of isomers) [Example 169, (rac)-((1s,3s)-3-Hydroxy-3-methylcyclobutyl)(6-(4-methylbenzyl)-2-azaspiro[3.4]octan-2-yl)methanone] reads 36 nM.
Compound `CC(C)c1ccc(CC2CCC3(C2)CN(C(=O)[C@H]2C[C@@](C)(O)C2)C3)cc1` (mixture of isomers) [Example 170, (rac)-((1s,3s)-3-Hydroxy-3-methylcyclobutyl)(6-(4-isopropylbenzyl)-2-azaspiro[3.4]octan-2-yl)methanone] came in with an IC50 of 10 nM.
To `C[C@]1(O)C[C@@H](C(=O)N2CC3(CCC(Cc4ccc(C(F)(F)F)cc4)C3)C2)C1` (mixture of isomers) [Example 171, (rac)-((1s,3s)-3-Hydroxy-3-methylcyclobutyl)(6-(4-(trifluoromethyl)benzyl)-2-azaspiro[3.4]octan-2-yl)methanone] belongs 6.8 nM; to `Cc1cccc(CC2CCC3(C2)CN(C(=O)[C@H]2C[C@@](C)(O)C2)C3)c1` (mixture of isomers) [Example 174, (rac)-((1s,3s)-3-Hydroxy-3-methylcyclobutyl)(6-(3-methylbenzyl)-2-azaspiro[3.4]octan-2-yl)methanone], 23 nM; to `Cc1ccccc1CC1CCC2(C1)CN(C(=O)[C@H]1C[C@@](C)(O)C1)C2` (mixture of isomers) [Example 175, (rac)-((1s,3s)-3-Hydroxy-3-methylcyclobutyl)(6-(2-methylbenzyl)-2-azaspiro[3.4]octan-2-yl)methanone], 43 nM.
The result for `C[C@]1(O)C[C@@H](C(=O)N2CC3(CCC(Cc4cccc(C(F)(F)F)c4)C3)C2)C1` (mixture of isomers) [Example 176, (rac)-((1s,3s)-3-Hydroxy-3-methylcyclobutyl)(6-(3-(trifluoromethyl)benzyl)-2-azaspiro[3.4]octan-2-yl)methanone] reads 11 nM; that for `C[C@]1(O)C[C@@H](C(=O)N2CC3(CC[C@@H](Cc4ccc(OC(F)(F)F)cc4)C3)C2)C1` (racemic) [Example 179, (rac)-((1s,3s)-3-Hydroxy-3-methylcyclobutyl)(6-(4-(trifluoromethoxy)benzyl)-2-azaspiro[3.4]octan-2-yl)methanone], 5.7 nM; that for `C[C@]1(O)C[C@@H](C(=O)N2CC3(CC[C@@H](Cc4cccc(OC(F)(F)F)c4)C3)C2)C1` (racemic) [Example 180, (rac)-((1s,3s)-3-Hydroxy-3-methylcyclobutyl)(6-(3-(trifluoromethoxy)benzyl)-2-azaspiro[3.4]octan-2-yl)methanone], 8.3 nM.
For the compound `CC(C)c1cccc(C[C@@H]2CCC3(C2)CN(C(=O)[C@H]2C[C@@](C)(O)C2)C3)c1` (racemic) [Example 181, (rac)-((1s,3s)-3-Hydroxy-3-methylcyclobutyl)(6-(3-isopropylbenzyl)-2-azaspiro[3.4]octan-2-yl)methanone], it took 4.6 nM to reach half-maximal inhibition (IC50).
`C[C@]1(O)C[C@@H](C(=O)N2CC3(CCC(Cc4ccc(C(F)F)cc4)C3)C2)C1` (mixture of isomers) [Example 182, (rac)-(6-(4-(Difluoromethyl)benzyl)-2-azaspiro[3.4]octan-2-yl)((1s,3s)-3-hydroxy-3-methylcyclobutyl)methanone] gave an IC50 of 34 nM.
The compound `C[C@]1(O)C[C@@H](C(=O)N2CC3(CCC(Cc4ccc(OC(F)F)cc4)C3)C2)C1` (mixture of isomers) [Example 183, (rac)-(6-(4-(Difluoromethoxy)benzyl)-2-azaspiro[3.4]octan-2-yl)((1s,3s)-3-hydroxy-3-methylcyclobutyl)methanone] registered an IC50 of 48 nM.
For the compound `C[C@]1(O)C[C@@H](C(=O)N2CC3(CCC(Cc4ccc(C5CC5)cc4)C3)C2)C1` (mixture of isomers) [Example 200, (rac)-(6-(4-Cyclopropylbenzyl)-2-azaspiro[3.4]octan-2-yl)((1s,3s)-3-hydroxy-3-methylcyclobutyl)methanone], the IC50 was determined as 6.9 nM.
The result for `C[C@]1(O)C[C@@H](C(=O)N2CC3(CCC(Cc4cccc(C5CC5)c4)C3)C2)C1` (mixture of isomers) [Example 201, (rac)-(6-(3-Cyclopropylbenzyl)-2-azaspiro[3.4]octan-2-yl)((1s,3s)-3-hydroxy-3-methylcyclobutyl)methanone] reads 9.9 nM; that for `Cc1cc(C(F)(F)F)ccc1CC1CCC2(C1)CN(C(=O)[C@H]1C[C@@](C)(O)C1)C2` (mixture of isomers) [Example 203, (rac)-((1s,3s)-3-Hydroxy-3-methylcyclobutyl)(6-(2-methyl-4-(trifluoromethyl)benzyl)-2-azaspiro[3.4]octan-2-yl)methanone], 7.8 nM.
Take `Cc1cc(CC2CCC3(C2)CN(C(=O)[C@H]2C[C@@](C)(O)C2)C3)ccc1C(F)(F)F` (mixture of isomers) [Example 204, (rac)-((1s,3s)-3-Hydroxy-3-methylcyclobutyl)(6-(3-methyl-4-(trifluoromethyl)benzyl)-2-azaspiro[3.4]octan-2-yl)methanone]: inhibition was half-maximal at 3.9 nM (IC50).
The result for `COc1ccc(CC2CCC3(C2)CN(C(=O)[C@H]2C[C@@](C)(O)C2)C3)cc1` (mixture of isomers) [Example 205, (rac)-((1s,3s)-3-Hydroxy-3-methylcyclobutyl)(6-(4-methoxybenzyl)-2-azaspiro[3.4]octan-2-yl)methanone] reads 76 nM; that for `C[C@]1(O)C[C@@H](C(=O)N2CC3(CCC(Cc4ccccc4)C3)C2)C1` (mixture of isomers) [Example 234, (rac)-(6-Benzyl-2-azaspiro[3.4]octan-2-yl)((1s,3s)-3-hydroxy-3-methylcyclobutyl)methanone], 98 nM.
To `CC(C)(C)c1ccc(OC2CCC3(C2)CN(C(=O)[C@H]2C[C@@](C)(O)C2)C3)cc1` (mixture of isomers) [Example 240, (rac)-(6-(4-(tert-Butyl)phenoxy)-2-azaspiro[3.4]octan-2-yl)((1s,3s)-3-hydroxy-3-methylcyclobutyl)methanone] belongs 122 nM.
